PubChem BioAssay AID248 (DTP/NCI, 2004)
“And” between values parts separate entries of the source, which are not always exact repeats. Identical values can stand only once. Toxic doses and inconclusive results are not listed. Cut-off read from the data, not from the text of the source: active = T/C of 150% or more; inactive = T/C below 125%.

Tested on: L1210 leukemia ip in BDF1 mice, survival T/C
Test: NCI In Vivo Anticancer Drug Screen. Data for tumor model L1210 Leukemia (intraperitoneal) in B6D2F1 (BDF1) mice
Details: endpoint: mean survival time, higher = longer survival
Procedure, shortened: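 Read-out is survival time, reported as the treated-group measurement over the vehicle-control measurement.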

[1] = dose: 100.0 mg/kg/injection, schedule: Q01DX001 (ip), vehicle: saline
[2] = dose: 200.0 mg/kg/injection, schedule: Q01DX001 (ip), vehicle: saline
[3] = dose: 400.0 mg/kg/injection, schedule: Q01DX001 (ip), vehicle: saline
[4] = dose: 100.0 mg/kg/injection, schedule: Q01DX009 (ip), vehicle: Klucel (hydroxypropylcellulose) (HPC)
[5] = dose: 200.0 mg/kg/injection, schedule: Q01DX009 (ip), vehicle: Klucel (hydroxypropylcellulose) (HPC)
[6] = dose: 400.0 mg/kg/injection, schedule: Q01DX009 (ip), vehicle: Klucel (hydroxypropylcellulose) (HPC)
[7] = dose: 100.0 mg/kg/injection, schedule: Q04DX003 (ip), vehicle: Klucel (hydroxypropylcellulose) (HPC)
[8] = dose: 200.0 mg/kg/injection, schedule: Q04DX003 (ip), vehicle: Klucel (hydroxypropylcellulose) (HPC)
[9] = dose: 100.0 mg/kg/injection, schedule: Q04DX002 (ip), vehicle: Klucel (hydroxypropylcellulose) (HPC)
[10] = dose: 200.0 mg/kg/injection, schedule: Q04DX002 (ip), vehicle: Klucel (hydroxypropylcellulose) (HPC)
[11] = dose: 100.0 mg/kg/injection, schedule: Q01DX009 (ip), vehicle: saline with Tween-80
[12] = dose: 200.0 mg/kg/injection, schedule: Q01DX009 (ip), vehicle: saline with Tween-80
[13] = dose: 400.0 mg/kg/injection, schedule: Q01DX009 (ip), vehicle: saline with Tween-80

Measured: T/C

Cc1cc(Cl)nc(Nc2nc3cc(Cl)c(Cl)cc3[nH]2)n1
inactive: dose: 12.5 mg/kg/injection, schedule: Q01DX009 (ip), vehicle: acetone 87 % of control and 92 % of control | dose: 12.5 mg/kg/injection, schedule: Q04DX003 (ip), vehicle: saline 95 % of control and 112 % of control | dose: 25.0 mg/kg/injection, schedule: Q01DX009 (ip), vehicle: acetone 87 % of control | dose: 25.0 mg/kg/injection, schedule: Q04DX003 (ip), vehicle: saline 94 % of control and 95 % of control | dose: 50.0 mg/kg/injection, schedule: Q01DX009 (ip), vehicle: acetone 88 % of control | dose: 50.0 mg/kg/injection, schedule: Q04DX003 (ip), vehicle: saline 94 % of control and 101 % of control | [1] 91 % of control | [2] 93 % of control | [3] 91 % of control

Cc1cc(C)c(C(C)(CS(C)(=O)=O)CS(C)(=O)=O)c(C)c1C(C)(CS(C)(=O)=O)CS(C)(=O)=O
inactive: [4] 105 % of control | [5] 102 % of control | [6] 105 % of control

CCn1c(Cl)c(C(=O)O)c2ccccc21
inactive: dose: 50.0 mg/kg/injection, schedule: Q04DX003 (ip), vehicle: Klucel (hydroxypropylcellulose) (HPC) 97 % of control | [7] 97 % of control | [8] 97 % of control

Cc1ccc(S(=O)(=O)/N=S(/C)c2ccccc2)cc1 (stereo not drawn)
inactive: dose: 100.0 mg/kg/injection, schedule: Q01DX009 (ip), vehicle: saline sonified 95 % of control | dose: 100.0 mg/kg/injection, schedule: Q04DX003 (ip), vehicle: saline sonified 94 % of control | dose: 200.0 mg/kg/injection, schedule: Q01DX009 (ip), vehicle: saline sonified 108 % of control | dose: 200.0 mg/kg/injection, schedule: Q04DX003 (ip), vehicle: saline sonified 106 % of control | dose: 400.0 mg/kg/injection, schedule: Q01DX009 (ip), vehicle: saline sonified 97 % of control | dose: 400.0 mg/kg/injection, schedule: Q04DX003 (ip), vehicle: saline sonified 103 % of control

Cc1cc(Br)c(O)c(Br)c1
inactive: dose: 75.0 mg/kg/injection, schedule: Q01DX001 (ip), vehicle: Klucel (hydroxypropylcellulose) (HPC) 99 % of control | dose: 150.0 mg/kg/injection, schedule: Q01DX001 (ip), vehicle: Klucel (hydroxypropylcellulose) (HPC) 100 % of control | dose: 300.0 mg/kg/injection, schedule: Q01DX001 (ip), vehicle: Klucel (hydroxypropylcellulose) (HPC) 95 % of control

CCC(C)C1NC(=O)C(C(C)=O)=C1O.[Cu+2] (stereo not drawn)
inactive: dose: 150.0 mg/kg/injection, schedule: Q01DX001 (ip), vehicle: carboxymethylcellulose (CMC) 105 % of control

COC(=O)C1C=C2c3cccc4[nH]cc(c34)CC2N(C)C1 (stereo not drawn)
inactive: dose: 100.0 mg/kg/injection, schedule: Q01DX009 (ip), vehicle: saline 105 % of control

COC1CC(C)C(Cl)C(C)C1/C=C/C(=O)O (stereo not drawn)
inactive: dose: 50.0 mg/kg/injection, schedule: Q01DX001 (ip), vehicle: saline with Tween-80 101 % of control | dose: 100.0 mg/kg/injection, schedule: Q01DX001 (ip), vehicle: saline with Tween-80 94 % of control | dose: 200.0 mg/kg/injection, schedule: Q01DX001 (ip), vehicle: saline with Tween-80 94 % of control

Cc1n[n+]([O-])c(C)cc1[N+](=O)[O-]
inactive: [9] 112 % of control | [10] 101 % of control

O=C1CSCCN1
inactive: dose: 100.0 mg/kg/injection, schedule: Q04DX003 (ip), vehicle: saline 101 % of control | dose: 200.0 mg/kg/injection, schedule: Q04DX003 (ip), vehicle: saline 101 % of control | dose: 400.0 mg/kg/injection, schedule: Q04DX003 (ip), vehicle: saline 98 % of control

COc1cc(C)nc2ccc(Cc3ccc4nc(C)cc(OC)c4c3)cc12
inactive: [1] 94 % of control | [2] 93 % of control | [3] 96 % of control

O=c1c2ccccc2sc2cccc(Sc3ccccc3)c12
inactive: [11] 101 % of control | [12] 98 % of control | [13] 98 % of control

Nc1ccc(/C=C/c2ccncc2)cc1
inactive: [4] 92 % of control | [7] 101 % of control | [5] 92 % of control | [8] 104 % of control | [6] 102 % of control | dose: 400.0 mg/kg/injection, schedule: Q04DX003 (ip), vehicle: Klucel (hydroxypropylcellulose) (HPC) 96 % of control

COCC(=O)C(C(C)=O)C(c1ccncc1)C(C(C)=O)C(=O)COC (stereo not drawn)
inactive: [11] 98 % of control | [12] 97 % of control | [13] 93 % of control

CCN(c1ccccc1)c1ccc([N+](=O)[O-])cc1[N+](=O)[O-]
inactive: dose: 100.0 mg/kg/injection, schedule: Q01DX001 (ip), vehicle: carboxymethylcellulose (CMC) 107 % of control | dose: 200.0 mg/kg/injection, schedule: Q01DX001 (ip), vehicle: carboxymethylcellulose (CMC) 91 % of control | dose: 400.0 mg/kg/injection, schedule: Q01DX001 (ip), vehicle: carboxymethylcellulose (CMC) 100 % of control

CC(C)(C)Nc1ccc(C#N)cc1
inactive: dose: 12.5 mg/kg/injection, schedule: Q04DX002 (ip), vehicle: Klucel (hydroxypropylcellulose) (HPC) 97 % of control | dose: 25.0 mg/kg/injection, schedule: Q04DX002 (ip), vehicle: Klucel (hydroxypropylcellulose) (HPC) 94 % of control | dose: 50.0 mg/kg/injection, schedule: Q04DX002 (ip), vehicle: Klucel (hydroxypropylcellulose) (HPC) 87 % of control

CC(=O)OCC1OC(N2C(=O)/C(=C/c3ccc4c(c3)OCO4)SC2=S)C(OC(C)=O)C(OC(C)=O)C1OC(C)=O (stereo not drawn)
inactive: dose: 12.5 mg/kg/injection, schedule: Q01DX005 (ip), vehicle: other 102 % of control | dose: 25.0 mg/kg/injection, schedule: Q01DX005 (ip), vehicle: other 100 % of control | dose: 50.0 mg/kg/injection, schedule: Q01DX005 (ip), vehicle: other 96 % of control | dose: 100.0 mg/kg/injection, schedule: Q01DX005 (ip), vehicle: other 94 % of control | dose: 200.0 mg/kg/injection, schedule: Q01DX005 (ip), vehicle: other 94 % of control

C#CCC1CCCC/C1=N\Nc1ccc([N+](=O)[O-])cc1[N+](=O)[O-] (stereo not drawn)
inactive: [9] 96 % of control | [10] 103 % of control | dose: 400.0 mg/kg/injection, schedule: Q04DX002 (ip), vehicle: Klucel (hydroxypropylcellulose) (HPC) 92 % of control

CN(C)C1CCCC/C=C\C(=O)NC1 (stereo not drawn)
inactive: dose: 25.0 mg/kg/injection, schedule: Q04DX002 (ip), vehicle: saline 99 % of control | dose: 50.0 mg/kg/injection, schedule: Q04DX002 (ip), vehicle: saline 101 % of control | dose: 75.0 mg/kg/injection, schedule: Q01DX001 (ip), vehicle: saline 109 % of control | dose: 100.0 mg/kg/injection, schedule: Q04DX002 (ip), vehicle: saline 99 % of control

O=C1/C(=C/c2ccccc2[N+](=O)[O-])CCc2ccccc21
inactive: dose: 100.0 mg/kg/injection, schedule: Q04DX003 (ip), vehicle: acetone 96 % of control | dose: 200.0 mg/kg/injection, schedule: Q04DX003 (ip), vehicle: acetone 106 % of control | dose: 400.0 mg/kg/injection, schedule: Q04DX003 (ip), vehicle: acetone 95 % of control

CCCCc1c(N)nc(N)nc1-c1ccccc1
inactive: dose: 100.0 mg/kg/injection, schedule: Q01DX001 (ip), vehicle: Klucel (hydroxypropylcellulose) (HPC) 112 % of control | dose: 200.0 mg/kg/injection, schedule: Q01DX001 (ip), vehicle: Klucel (hydroxypropylcellulose) (HPC) 105 % of control | dose: 400.0 mg/kg/injection, schedule: Q01DX001 (ip), vehicle: Klucel (hydroxypropylcellulose) (HPC) 94 % of control
